{
  "source": "patent US20060014673A1",
  "about": "(priority 1998, published 2006)",
  "key": {"[1]": {"system": "Primary cultures of neonatal rat cortex", "format": "cell-based"}, "[2]": {"system": "Primary cultures of neonatal rat cortex", "format": "cell-based", "remark": "listed apart in the source"}},
  "note": "Where two headings read alike, the source gives them in different places.",
  "data": [
    {"molecule": "Nc1ccncc1", "note": "[4-AP, 4-aminopyridine]", "values": [
      {"measurement": "effect on intracellular calcium", "setting": "[1]; depolarized conditions (aconitine), substance alone", "value": "induces an increase in intracellular calcium"},
      {"measurement": "effect on intracellular calcium", "setting": "[2]", "value": "significant effect"},
      {"measurement": "potency in non-depolarized compared with depolarized cultures", "setting": "[2]", "value": "slightly less potent"}
    ]},
    {"molecule": "dendrotoxin", "values": [
      {"measurement": "effect on intracellular calcium", "setting": "[1]", "value": "caused an increase in intracellular calcium"}
    ]}
  ]
}
